Experimental findings from paper PMC1930153, “Engineering the Melanocortin-4 Receptor to Control Constitutive and Ligand-Mediated Gs Signaling In Vivo” (PLoS ONE, 2007) are described below.

What all share (format): cell-based
Assay [1] has as its target T1, wild-type MC4R (Homo sapiens, UniProt P32245).
T1 construct: prolactin signal peptide (N); expressed in transfected cells; host or cells: HEK293
Briefly: cAMP assay, wild-type MC4R in transiently transfected HEK293 cells. How it is done: (§1) HEK293 cells were maintained in Dulbecco's modified Eagle's medium supplemented with 10% fetal bovine serum containing L-glutamine. […] For the internalization assays, stable cell lines expressing wild-type or RASSL-MC4R were generated by G418-mediated selection (10 µg/ml) of clones expressing the neomycin-resistance gene cotransfected with MC4R. Stable cell lines were maintained by selection with 5 µg/ml G418.
(§2) cAMP production was measured with an ultra sensitive enzymatic cAMP assay (CatchPoint, Molecular Devices, Sunnyvale, CA). Transiently transfected cells were plated at 1×10^5/well into 96-well plates coated with poly-D-lysine (Sigma). Forty-eight h after transfection, cells were rinsed in Krebs-Ringer bicarbonate buffer containing glucose (Sigma) and incubated in pre-stimulation buffer containing 0.75 mM 3-isobutyl-1-methylxanthine in the same buffer for 10 min at room temperature. […] The cells were lysed, and cAMP accumulation was measured according to the CatchPoint protocol. cAMP generated under the different experimental conditions was interpolated from a cAMP standard curve for each experiment. Four replicates were used for each condition, and all experiments were repeated at least three times. Emax and EC50 values were calculated with SoftMax Pro. cAMP measurements were performed on transiently transfected cells.
(cAMP levels reflect the balance of adenylyl cyclase and phosphodiesterase activity.)

The next assay addresses T2, MC4R N97D (Homo sapiens, UniProt P32245, N97D).
T2 construct: prolactin signal peptide (N); green fluorescent protein (N); expressed in transfected cells; host or cells: HEK293
Briefly: cAMP assay, N97D MC4R mutant in HEK293 cells. How it is done:
(§3) HEK293 cells were maintained in Dulbecco's modified Eagle's medium supplemented with 10% fetal bovine serum containing L-glutamine. Wild-type and mutant MC4R were transfected into HEK 293 cells with Lipofectamine (Invitrogen). For the internalization assays, stable cell lines expressing wild-type or RASSL-MC4R were generated by G418-mediated selection (10 µg/ml) of clones expressing the neomycin-resistance gene cotransfected with MC4R. Stable cell lines were maintained by selection with 5 µg/ml G418.
as §2, with “Four replicates were used for each condition, and all experiments were repeated at least three times.” left out

The target in a further assay is T3, MC4R G98R (Homo sapiens, UniProt P32245, G98R).
T3 construct: prolactin signal peptide (N); green fluorescent protein (N); expressed in transfected cells; host or cells: HEK293
Briefly: cAMP assay, G98R MC4R mutant in HEK293 cells. How it is done: as §3
as §2, with “Four replicates were used for each condition, and all experiments were repeated at least three times.” left out

Another assay deals with T4, MC4R E100A (Homo sapiens, UniProt P32245, E100A).
T4 construct: prolactin signal peptide (N); green fluorescent protein (N); expressed in transfected cells; host or cells: HEK293
Briefly: cAMP assay, E100A MC4R mutant in HEK293 cells. The protocol:
as §3
as §2, with “Four replicates were used for each condition, and all experiments were repeated at least three times.” left out

Another assay deals with T5, MC4R I102S (Homo sapiens, UniProt P32245, I102S).
T5 construct: prolactin signal peptide (N); green fluorescent protein (N); expressed in transfected cells; host or cells: HEK293
The experiment in a line: cAMP assay, I102S MC4R mutant in HEK293 cells. The protocol: as §3
as §2, with “Four replicates were used for each condition, and all experiments were repeated at least three times.” left out

In a further assay the target is T6, L106P-MC4R (Rm1) (Homo sapiens, UniProt P32245, L106P).
T6 construct: prolactin signal peptide (N); green fluorescent protein (N); expressed in transfected cells; host or cells: HEK293
Briefly: cAMP assay, L106P MC4R (Rm1) in HEK293 cells. How it is done:
as §1, §2

Another assay deals with T7, D122A-MC4R (Rm2) (Homo sapiens, UniProt P32245, D122A).
T7 construct: prolactin signal peptide (N); green fluorescent protein (N); expressed in transfected cells; host or cells: HEK293
The experiment in a line: cAMP assay, D122A MC4R (Rm2) in HEK293 cells. How it is done: as §1, §2

The next assay concerns the target T8, MC4R D126A (Homo sapiens, UniProt P32245, D126A).
T8 construct: prolactin signal peptide (N); green fluorescent protein (N); expressed in transfected cells; host or cells: HEK293
The experiment in a line: cAMP assay, D126A MC4R mutant in HEK293 cells. How it is done: as §3
as §2, with “Four replicates were used for each condition, and all experiments were repeated at least three times.” left out

A further assay deals with T9, MC4R S127L (Homo sapiens, UniProt P32245, S127L).
T9 construct: prolactin signal peptide (N); green fluorescent protein (N); expressed in transfected cells; host or cells: HEK293
Briefly: cAMP assay, S127L MC4R mutant in HEK293 cells. How it is done: as §3
as §2, with “Four replicates were used for each condition, and all experiments were repeated at least three times.” left out

Assay [2] concerns the target T1, wild-type MC4R. The experiment in a line: Receptor internalization (cell-surface FLAG ELISA), HEK293 cells stably expressing wild-type MC4R. The note with it: WT MC4R, 2-h exposure. How it is done: as §3
(§4) Cell-surface expression of receptors was measured with an enzyme-linked immunosorbent assay (ELISA) that detects the extracellular FLAG tag. Transiently transfected cells were plated at 1×10^5/well into 96-well plates coated with poly-D-lysine (Sigma). […] Forty-eight h after transfection, cells were fixed in 4% paraformaldehyde (Sigma) for 10 min at 4°C. After two washes in phosphate-buffered saline, the cells were incubated in 1 µg/ml M1 anti-FLAG antibody (Sigma) for 2 h at room temperature, washed twice in phosphate-buffered saline, and incubated for 1 h at room temperature with horseradish peroxidase–conjugated goat-anti-mouse (1∶1000, BioRad, Chicago, IL). […] After 15–60 min, the optical density was read at 405 nm in a spectrophotometer. […]
Background: ELISA stands for enzyme-linked immunosorbent assay.

The next assay deals with T10, Rm1 (L106P) (Homo sapiens, UniProt P32245, L106P).
T10 construct: prolactin signal peptide (N); green fluorescent protein (N); expressed in transfected cells; host or cells: HEK293
Briefly: Receptor internalization (cell-surface FLAG ELISA), HEK293 cells stably expressing Rm1. How it is done: as §3, §4

The next assay concerns the target T11, Rm2 (D122A) (Homo sapiens, UniProt P32245, D122A).
T11 construct: prolactin signal peptide (N); green fluorescent protein (N); expressed in transfected cells; host or cells: HEK293
Briefly: Receptor internalization (cell-surface FLAG ELISA), HEK293 cells stably expressing Rm2. How it is done:
as §3, §4

The target of assay [3] is T1, wild-type MC4R. Briefly: Cell-surface expression ELISA, transiently transfected HEK293 cells, wild-type MC4R. To be noted: WT MC4R, transient transfection; α-MSH 1 µM. The protocol:
as §3, §4

In the case of `O=C(N[C@H](Cc1ccc(Cl)cc1)C(=O)N1CCC(Cn2cncn2)(C2CCCCC2)CC1)[C@H]1Cc2ccccc2CN1` (relative stereo) [THIQ], the “Emax (% of WT)” value at wild-type MC4R [1] (cAMP, 2 h stimulation) is 100 % of WT; at MC4R N97D, 43.1±3.1 % of WT; at MC4R G98R, 2.6±0.6 % of WT; on MC4R E100A it was 44.54±4.9 % of WT; at MC4R I102S, 49.2±2.2 % of WT; on L106P-MC4R (Rm1) (cAMP, L106P (Rm1)) it was 73.4±14.8 % of WT. Further, the “Emax (% of WT)” value at D122A-MC4R (Rm2) (cAMP, D122A (Rm2)) is 90.3±6.2 % of WT; on MC4R D126A it was 50.7±3.6 % of WT; on MC4R S127L, 21.7±3.5 % of WT. For the same compound, the “Internalization in words (time course)” value at wild-type MC4R [2] (1 µM ligand) is listed as “did not result in internalization”; at Rm1 (L106P) (Rm1, 1 µM ligand, 2-h exposure), “did not internalize”. Also, the “Receptor sequestration in words” value at wild-type MC4R [2] (increasing concentrations) is given as “did not cause sequestration”. Further, the “Receptor sequestration/internalization in words” value at Rm1 (L106P) (Rm1, 2-h exposure, increasing concentrations) is “did not cause sequestration”; on Rm2 (D122A) (Rm2, 2-h exposure, increasing concentrations) it was “did not cause sequestration”. In addition, at Rm2 (D122A) (Rm2, 1 µM ligand), the “Decrease in cell-surface expression” value is on record as “about 20%”.
On to `CSCC[C@H](NC(=O)[C@H](CCCNC(=N)N)NC(=O)[C@H](Cc1ccc(O)cc1)NC(=O)[C@@H]1CCCN1C(=O)CNC(=O)[C@H](CCC(=O)O)NC(=O)[C@H](CC(=O)O)NC(=O)[C@H](CCCCN)NC(=O)[C@H](CCCCN)NC(=O)[C@H](CCC(=O)O)NC(=O)[C@H](C)N)C(=O)N[C@@H](CCC(=O)O)C(=O)N[C@@H](Cc1c[nH]cn1)C(=O)N[C@@H](Cc1ccccc1)C(=O)N[C@@H](CCCNC(=N)N)C(=O)N[C@@H](Cc1c[nH]c2ccccc12)C(=O)NCC(=O)N[C@@H](CO)C(=O)N1CCC[C@H]1C(=O)N1CCC[C@H]1C(=O)N[C@@H](CCCCN)C(=O)N[C@@H](CC(=O)O)C(=O)O` [β-MSH], for which the “Activation (cAMP release) in words” value on wild-type MC4R [1] (WT MC4R, increasing concentrations) was “full activation”; on L106P-MC4R (Rm1) (Rm1, increasing concentrations), “no activation”; at D122A-MC4R (Rm2) (Rm2, increasing concentrations), “no activation”.
With “agouti-related peptide (SSRRCVRLHESCLGQQVPCCDPCATCYCRFFNAFCYCRKLGTAMNPCSRT; UniProt O00253 83-132, looked up) [AGRP]”, the “Antagonism when co-administered with THIQ” value with L106P-MC4R (Rm1) (Rm1, cAMP) was “full antagonist”. For the same compound, in the assay with wild-type MC4R [3], the “Effect on cell-surface expression in words” value is “stabilized receptor expression on the cell surface”.
